{"source": "patent US9410197B2", "about": "“Compound for sequencing by synthesis” (Roche Diagnostics Operations, Inc., priority 2013, dated 2016)", "key": {"[1]": {"target": "T1, Therminator II DNA polymerase (Thermococcus sp., UniProt Q56366, A485L/D141A/E143A/Y409V)", "T1 construct": "purchased New England Biolabs", "T1 sequence (Q56366 1-775 D141A/E143A/Y409V/A485L)": "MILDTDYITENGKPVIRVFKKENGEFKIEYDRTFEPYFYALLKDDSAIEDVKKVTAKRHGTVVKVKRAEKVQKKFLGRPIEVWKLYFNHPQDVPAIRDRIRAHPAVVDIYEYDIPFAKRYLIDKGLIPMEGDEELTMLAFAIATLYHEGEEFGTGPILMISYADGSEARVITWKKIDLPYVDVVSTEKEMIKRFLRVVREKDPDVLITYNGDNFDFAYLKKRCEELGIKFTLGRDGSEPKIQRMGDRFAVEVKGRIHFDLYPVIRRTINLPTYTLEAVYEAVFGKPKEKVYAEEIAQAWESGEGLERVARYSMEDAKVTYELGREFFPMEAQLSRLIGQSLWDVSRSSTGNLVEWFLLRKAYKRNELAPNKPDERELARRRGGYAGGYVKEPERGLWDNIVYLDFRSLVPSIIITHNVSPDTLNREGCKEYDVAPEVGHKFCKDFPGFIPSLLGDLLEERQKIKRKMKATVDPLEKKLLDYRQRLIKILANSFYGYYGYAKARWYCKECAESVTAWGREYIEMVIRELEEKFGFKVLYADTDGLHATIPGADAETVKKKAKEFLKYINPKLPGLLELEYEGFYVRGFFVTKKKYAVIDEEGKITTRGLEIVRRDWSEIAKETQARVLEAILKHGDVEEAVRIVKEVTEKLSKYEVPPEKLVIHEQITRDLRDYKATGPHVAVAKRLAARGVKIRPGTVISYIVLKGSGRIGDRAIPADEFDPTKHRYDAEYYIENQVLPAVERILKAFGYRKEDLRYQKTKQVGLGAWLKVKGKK", "assay_type": "biochemical"}, "[2]": {"test": "Cleavage of the 3′-O-nitro group with cysteamine-NaOH", "assay_type": "physicochemical", "conditions": "aqueous cysteamine-NaOH (pH 9.0), 1.0 to 2.0 M cysteamine, after 5 minutes at 50° C.", "description": "10 to 100 nmol of 3′-O-nitro-thymidine 2 were dissolved in an aqueous solution of cysteamine-NaOH (pH 9.0) to obtain a final nucleoside concentration of 0.17 to 1.7 nmol/μL and a final cysteamine concentration of 1.0 to 2.0 M. Reaction control was performed via analytical reversed-phase chromatography using 0.1 M triethylammonium acetate (pH 7.0)/acetonitrile gradient as eluent."}}, "note": "Values joined by “and” are separate entries in the source; they are usually repeats but may differ in a detail not shown here. Identical values can stand only once."}
{"smiles": "Cc1cn([C@H]2C[C@H](O[N+](=O)[O-])[C@@H](COP(=O)([O-])OP(=O)([O-])OP(=O)([O-])[O-])O2)c(=O)[nH]c1=O.[Na+].[Na+].[Na+].[Na+]", "note": "[Compound 3, 3′-O-Nitro-β-D-thymidine 5′-triphosphate, tetrasodium salt]", "values": [{"measurement": "acceptance as substrate by Therminator II DNA polymerase", "setting": "[1]", "result": "accepted as substrates"}, {"measurement": "incorporation by Therminator II DNA polymerase", "setting": "[1]", "result": "incorporated efficiently"}, {"measurement": "primer + dNTP MWfound", "setting": "[1]", "result": "5108.2 DA and 5108.1 DA and 5108.3 DA and 5108.4 DA"}]}
{"smiles": "Cc1cn([C@H]2C[C@H](O[N+](=O)[O-])[C@@H](CO)O2)c(=O)[nH]c1=O", "note": "[Compound 2, 3′-O-Nitro-β-D-thymidine]", "values": [{"measurement": "cleavage of the nitrate group", "setting": "[2]", "result": "Quantitative cleavage"}]}
